Results published in US11964988B2, “Fused heterocyclic compounds as RET kinase inhibitors” (ARRAY BIOPHARMA INC., priority 2018, dated 2024).
Changes are numbered by the printed parent chain.

Key:
G810R mutant RET kinase = G810R mutant RET kinase (Homo sapiens, UniProt P07949, G810R); assay: biochemical;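 also: HTRF KinEASE-TK enzymatic assay with 1 nM recombinant RET G810R, 1 h at 22 °C, dual-wavelength ratiometric readout, 100% control without compound, 0% from pre-quenched reactions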
RET kinase V804M = RET kinase V804M (Homo sapiens, UniProt P07949, V804M); assay: RET Enzyme Assay (CisBio HTRF KinEASE-TK), V804M; type: biochemical; details: read-out: RET V804M Enz FRET IC50
RET kinase V804M, sequence (P07949 29-1114 V804M): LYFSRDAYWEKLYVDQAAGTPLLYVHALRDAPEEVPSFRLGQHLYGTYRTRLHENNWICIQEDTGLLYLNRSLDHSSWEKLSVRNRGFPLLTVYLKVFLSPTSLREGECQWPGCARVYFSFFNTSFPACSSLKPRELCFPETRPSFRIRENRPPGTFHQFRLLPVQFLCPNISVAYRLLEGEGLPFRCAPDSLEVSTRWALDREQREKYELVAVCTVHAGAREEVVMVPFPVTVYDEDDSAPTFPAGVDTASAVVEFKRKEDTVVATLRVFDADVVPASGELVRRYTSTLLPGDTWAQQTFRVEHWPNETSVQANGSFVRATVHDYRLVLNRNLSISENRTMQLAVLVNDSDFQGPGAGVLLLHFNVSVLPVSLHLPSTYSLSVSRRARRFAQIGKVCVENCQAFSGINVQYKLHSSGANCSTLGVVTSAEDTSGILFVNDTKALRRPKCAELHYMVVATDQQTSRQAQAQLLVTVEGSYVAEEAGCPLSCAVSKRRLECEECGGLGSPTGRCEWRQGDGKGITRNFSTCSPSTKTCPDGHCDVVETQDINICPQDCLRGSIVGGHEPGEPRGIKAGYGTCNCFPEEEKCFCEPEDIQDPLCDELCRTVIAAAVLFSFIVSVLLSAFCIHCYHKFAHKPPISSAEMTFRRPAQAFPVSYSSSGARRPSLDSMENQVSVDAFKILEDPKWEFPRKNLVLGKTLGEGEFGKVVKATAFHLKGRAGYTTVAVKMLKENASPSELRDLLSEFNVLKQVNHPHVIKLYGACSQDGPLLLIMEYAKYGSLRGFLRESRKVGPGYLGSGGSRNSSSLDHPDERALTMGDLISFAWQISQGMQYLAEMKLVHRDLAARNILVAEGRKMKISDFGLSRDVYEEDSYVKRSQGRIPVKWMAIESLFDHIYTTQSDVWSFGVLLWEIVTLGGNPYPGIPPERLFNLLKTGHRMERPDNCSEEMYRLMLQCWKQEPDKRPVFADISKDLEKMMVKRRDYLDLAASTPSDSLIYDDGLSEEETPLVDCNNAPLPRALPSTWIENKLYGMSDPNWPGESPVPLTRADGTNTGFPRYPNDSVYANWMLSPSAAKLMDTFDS

G810S mutant RET kinase = G810S mutant RET kinase (Homo sapiens, UniProt P07949, G810S); assay: biochemical;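 also: HTRF KinEASE-TK kinase assay with recombinant enzyme, 1 h at 22 °C, dual-wavelength ratiometric read-out, percent of control (DMSO-only = 100, pre-quenched reaction = 0)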
G810S mutant RET kinase, sequence (P07949 29-1114 G810S): as the sequence (P07949 29-1114 V804M) above, with M776V, G782S counted along it

RET kinase Wild Type = RET kinase Wild Type (Homo sapiens, UniProt P07949); assay: biochemical;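 also: HTRF kinase activity assay on RET enzyme, 1 h reaction at 22 °C, dual-wavelength readout as percent of control, DMSO-only wells as 100%, pre-quenched reactions as 0%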
RET kinase Wild Type, sequence (P07949 29-1114): as the sequence (P07949 29-1114 V804M) above, with M776V counted along it

[1] = target: T1, HEK-293 cells expressing a Kif5b-RET fusion protein (Homo sapiens, UniProt P07949); assay: RET Cell Assay (phospho-RET Tyr1062); type: cell-based; details: HEK-293 Kif5b-RET, 1 hour incubation, phospho-RET normalized to GAPDH; read-out: KIF5B-RET pTYR1062 Cell IC50
T1 construct: KIF5B (N-terminal portion incl. coiled-coil); expressed in transfected cells; host or cells: HEK-293; the other entry of the earlier key: KIF5B (P33176, Kinesin-1 heavy chain)
T1 sequence (P07949 713-1063 limits assumed): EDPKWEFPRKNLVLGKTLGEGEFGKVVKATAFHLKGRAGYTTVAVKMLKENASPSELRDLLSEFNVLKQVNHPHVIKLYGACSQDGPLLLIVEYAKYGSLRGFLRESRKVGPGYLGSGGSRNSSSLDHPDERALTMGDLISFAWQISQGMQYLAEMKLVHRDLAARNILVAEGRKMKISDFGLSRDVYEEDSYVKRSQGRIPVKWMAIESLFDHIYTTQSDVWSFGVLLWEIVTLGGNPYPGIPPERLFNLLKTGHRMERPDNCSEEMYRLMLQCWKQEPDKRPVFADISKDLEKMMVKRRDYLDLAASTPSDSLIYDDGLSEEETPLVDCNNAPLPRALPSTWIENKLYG
Experimental: (§1) The cellular potency of compounds inhibiting RET kinase were determined in HEK-293 cells expressing a Kif5b-RET fusion protein. Briefly, HEK-293 cells expressing a Kif5b-RET fusion protein were plated at 50K cells/well in 96 well poly-D-Lysine coated plates the day prior to the assay. The cells were incubated for 1 hour with test compound in DMEM (Dulbecco's Modified Eagle Medium) at a final DMSO concentration of 0.5%. […] After 1 hour the media was removed, the cells were fixed with 3.8% formaldehyde for 20 min, washed with PBS, and permeabilized for 10 min with 100% methanol. The plates were then washed with PBS-0.05% Tween20, and blocked with LI-COR Blocking solution (LI-COR Catalog No. 927-40000) for 1 hour. Plates were washed with PBS-0.05% Tween20, then incubated with anti-phospho-RET (Tyr1062) (Santa Cruz Catalog No. sc-20252-R) antibody and anti-GAPDH (Millipore Catalog No. MAB374) antibody for 2 hours. The plates were washed with PBS-0.05% Tween20, and incubated with anti-rabbit 680 (Molecular Probes Catalog No. A21109) and anti-mouse 800 (LI-COR Catalog No. 926-32210) secondary antibodies for 1 hour. All antibodies were diluted in LI-COR Block containing 0.05% Tween. The plates were washed with PBS-0.05% Tween20,100 μL PBS is added to each well, and the plates were read on a LI-COR Aerius fluorescent plate reader. The phospho-RET signal was normalized to the GAPDH signal. […] The POC values were fit to a 4 parameter logistic curve. The IC50 value is the point where the curve crosses 50 POC.

[2] = target: T2, HEK-293 cells expressing a G810S mutant RET Kif5b-RET fusion protein (Homo sapiens, UniProt P07949, G810S); assay: RET G810S Mutant Cell Assay (phospho-RET Tyr1062); type: cell-based; details: HEK-293 Kif5b-RET G810S, 1 hour incubation, phospho-RET normalized to GAPDH
T2 construct: KIF5B (N-terminal portion incl. coiled-coil); expressed in transfected cells; host or cells: HEK-293
T2 sequence (P07949 713-1063 G810S limits assumed): T1 sequence (P07949 713-1063 limits assumed) with G98S
Experimental: as §1, with “expressing a G810R or G810S mutant RET Kif5b-RET fusion” for “expressing a Kif5b-RET fusion”, “μL PBS was added to” for “μL PBS is added to”, “POC values are fit to” for “POC values were fit to”

[3] = target: T3, HEK-293 cells expressing a G810R mutant RET Kif5b-RET fusion protein (Homo sapiens, UniProt P07949, G810R); assay: RET G810R Mutant Cell Assay (phospho-RET Tyr1062); type: cell-based; details: HEK-293 Kif5b-RET G810R, 1 hour incubation, phospho-RET normalized to GAPDH
T3 construct: KIF5B (N-terminal portion incl. coiled-coil); expressed in transfected cells; host or cells: HEK-293; the other entry of the earlier key: KIF5B (P33176, Kinesin-1 heavy chain)
T3 sequence (P07949 713-1063 G810R limits assumed): T1 sequence (P07949 713-1063 limits assumed) with G98R
Experimental: as §1, with “expressing a G810R or G810S mutant RET Kif5b-RET fusion” for “expressing a Kif5b-RET fusion”, “μL PBS was added to” for “μL PBS is added to”, “POC values are fit to” for “POC values were fit to”

G810R mutant RET kinase, sequence (P07949 29-1114 G810R): as the sequence (P07949 29-1114 V804M) above, with M776V, G782R counted along it

IC50 (G810R mutant RET kinase) [nM]	IC50 (RET kinase V804M) [nM]	IC50 (G810S mutant RET kinase) [nM]	IC50 (RET kinase Wild Type) [nM]	IC50 [1] [nM]	IC50 [2] [nM]	IC50 [3] [nM]	Compound
760	483	183	128	35	86	–	CC(C)n1c2c(c3c(N)ncnc31)-c1c(Cl)c3ccc(C(=O)NC4CC4)cc3n1CCC2 [Example 102, 1-Amino-14-chloro-N-cyclopropyl-5-isopropyl-5,6,7,8-tetrahydropyrimido[5″,4″:4′,5′]pyrrolo[3′,2′:3,4]azepino[1,2-a]indole-11-carboxamide]
61	57	101	24	40	177	–	Nc1ncnc2c1c1c(n2C2CCC2)CCC(O)c2c-1noc2C1CC1 (stereo not drawn) [Example 144, 11-Amino-7-cyclobutyl-3-cyclopropyl-4,5,6,7-tetrahydroisoxazolo[4″,3″:6′,7]cyclohepta[1′,2′:4,5]pyrrolo[2,3-d]pyrimidin-4-ol 2,2,2-trifluoroacetate]
70	22	41	7	2	20	–	CC1(n2c3c(c4c(N)ncnc42)-c2noc(C4CC4)c2C(O)CC3)CC1 (stereo not drawn) [Example 149, 11-Amino-3-cyclopropyl-7-(1-methylcyclopropyl)-4,5,6,7-tetrahydroisoxazolo[4″,3″:6′,7′]cyclohepta[1′,2′:4,5]pyrrolo[2,3-d]pyrimidin-4-ol]
150	152	229	45	54	103	–	Nc1ncnc2c1c1c(n2[C@H]2C[C@H](CO)C2)CCC(O)c2c-1noc2C1CC1 (stereo partly drawn) [Example 135, 11-Amino-3-cyclopropyl-7-((1r,3r)-3-(hydroxymethyl)cyclobutyl)-4,5,6,7-tetrahydroisoxazolo[4″,3″:6′,7′]cyclohepta[1′,2′:4,5]pyrrolo[2,3-d]pyrimidin-4-ol 2,2,2-trifluoroacetate]
98	349	160	88	157	435	–	Nc1ncnc2c1c1c(n2C2CCC(O)C2)CCC(=O)c2c-1noc2C1CC1 (mixture of isomers) [Example 128, 11-Amino-3-cyclopropyl-7-(3-hydroxycyclopentyl)-6,7-dihydroisoxazolo[4″,3″:6′,7′]cyclohepta[1′,2′:4,5]pyrrolo[2,3-d]pyrimidin-4(5H)-one 2,2,2-trifluoroacetate]
2740	–	2480	531	13900	16700	–	CNC(=O)c1ccc2cc3n(c2c1)C(=O)NCc1c-3c2c(N)ncnc2n1C(C)C [Example 73, 1-Amino-5-isopropyl-N-methyl-8-oxo-5,6,7,8-tetrahydropyrimido[5″,4″:4′,5′]pyrrolo[2′,3′:5,6][1,3]diazepino[1,7-a]indole-11-carboxamide]
1060	–	1600	353	222	408	–	CC(C)n1c2c(c3c(N)ncnc31)-c1cc3ccc(C(=O)Nc4ccccn4)cc3n1CCC2 [Example 90, 1-amino-5-isopropyl-N-(pyridin-2-yl)-5,6,7,8-tetrahydropyrimido[5″,4″:4′,5′]pyrrolo[3′,2′: 3,4]azepino[1,2-a]indole-11-carboxamide]
1910	–	5570	1260	1000	1000	–	CC(C)n1c2c(c3c(N)ncnc31)-c1cc3ccc(C(=O)Nc4cnn(C)c4)cc3n1CCC2 [Example 93, 1-amino-5-isopropyl-N-(1-methyl-1H-pyrazol-4-yl)-5,6,7,8-tetrahydropyrimido[5″,4″:4′,5′]pyrrolo[3′,2′: 3,4]azepino[1,2-a]indole-11-carboxamide]
157	106	135	16	60	–	290	CCCN1Cc2c(c3c(N)ncnc3n2C(C)C)-c2noc(C3CC3)c2C1=O [Example 4]
